Here are results for seven compounds from US9771332B2, “2-thiopyrimidinones” (Pfizer Inc., priority 2015, dated 2017).

Where a name gives a salt, the structure may show the parent alone. Read-outs that look alike come from different tables or passages of the source.

One data set addresses T1, MPO (Homo sapiens, UniProt P05164).
T1 construct: endogenous in cells; host or cells: human whole blood leukocytes, LPS-stimulated
Kind of data set: Human Whole Blood Assay for Irreversible Inhibition of MPO. The data set is classed as cell-based. To be noted: LPS-stimulated human whole blood, 4 hour incubation; irreversible inhibition of active MPO. How it is done: To measure the inhibition of MPO activity in a biological system in the present invention, bioassays were performed with human whole blood that was collected from medication-free, human volunteers in heparin treated tubes (APP Pharmaceuticals, LLC, cat # NDC#63323-047-10, #4710). Blood was aliquoted and treated with different concentrations of the MPO inhibitor or vehicle control and co-treated with or without bacterial lipopolysaccharide (LPS, InVivogen) to stimulate blood leukocytes to simultaneously generate H2O2 (a required MPO substrate) and the release of MPO. After a 4 hour incubation at room temperature the plasma fraction was collected following a 2000×g centrifugation at 4° C.
The plasma fraction was divided in two for analysis of total MPO and active MPO. The total MPO content was determined using a standard sandwich ELISA (capture and detection antibodies: Cell Sciences, Cat# HP9048, and Cell Sciences, Cat# HM2164, clone 266-6K1) and calculated relative to a standard curve of purified MPO (myeloperoxidase, Calbiochem, cat#475911) that was prepared by dilution in the autologous donor plasma. The MPO activity is determined by capturing the total MPO from plasma using the capture step as described for the above ELISA method. […] The MPO activity of the captured material was compared to that obtained with a standard curve of purified MPO (myeloperoxidase, Calbiochem, cat#475911) that was prepared in autologous donor plasma. The percent of ‘active’ myeloperoxidase for each sample was calculated from the ratio of the active myeloperoxidase in the Amplex Red assay and the total myeloperoxidase from the ELISA for each sample. A dose response curve of the compound concentration versus MPO activity was then plotted to determine the IC50 value.

A further data set has as its target T2, hERG potassium channel (Homo sapiens, UniProt Q12809).
T2 construct: host or cells: CHO cells (PrecisiON hERG-CHO Recombinant Cell Line)
Kind of data set: hERG Assay (Qpatch HT automated patch clamp, hERG-transfected CHO cells). It counts as cell-based. The settings on record: for Therapeutic ratio hERG IC50/MPO IC50: hERG IC50 divided by MPO IC50 in human whole blood; for inhibition at 5 min, 100 µM: at 100 uM; for inhibition at 5 min, 300 µM: at 300 uM. Here is the method: All testing was carried out in CHO cells transfected with the hERG gene purchased from Millipore (PrecisiON hERG-CHO Recombinant Cell Line CYL3038). The cell line was grown in DMEM/F-12, GlutaMAX™ with 10% fetal bovine serum, 1% Penicillin-Streptomycin, 1% Geneticin and 1% of 1M HEPES buffer solution, and maintained at approximately 37° C. in a humidified atmosphere containing 5% carbon dioxide. The cells were passaged every 3-5 days based on confluency. On the day of the experiment, 50%-80% confluent cells were harvested from a 175 cm^2 culture flask using Detachin™. After 10 minutes of exposure to Detachin™ at 37° C., the cells were centrifuged for 1 minute at 1000 RPM. The supernatant was removed and the cell pellet was reconstituted in 5-8 mL of serum free media with 2.5% of 1M HEPES, placed on the Qstirrer™, and allowed to recover. After a ˜30 minute recovery period, experiments were initiated.
hERG current was elicited and recorded using the automated Qpatch HT™ system (as described in Kutchinsky J, Friis S, Asmild M, et al. Characterization of potassium channel modulators with QPatch automated patch-clamp technology: system characteristics and performance. Assay Drug Dev Technol 2003; 1(5):685-93). The suspended cells in the Qstirrer™ were transferred to 48 individual recording chambers on a Qplate 48™ containing extracellular recording saline composed of (in mM): 138 NaCl, 5.3 KCl, 1.3 CaCl2, 0.5 MgCl2, 5.6 Glucose, 5 HEPES, 0.4 MgSO4, 0.44 KH2PO4, 4.2 NaHCO3, 0.34 Na2HPO4, and adjusted to pH 7.4±0.1 with NaOH. The intracellular recording saline was composed of (in mM): 130 KCl, 1 MgCl2, 10 HEPES, 5 Mg-ATP, and 5 EGTA, and adjusted to pH 7.2±0.1 with KOH. Membrane currents were recorded at room temperature.
hERG current was elicited from a holding potential of −80 mV with a voltage step to +30 mV for 1 second, followed by a ramp back to −80 mV at 0.55 mV/ms. Test pulses were delivered at a frequency of 0.25 Hz. Up to 4 different concentrations were studied on each cell, each exposure lasting 5 minutes or until steady-state effects were observed. In a separate set of experiments, a full concentration-response relationship and an IC50 was determined for a positive control, cisapride, (Jules C. Hancox, Mark J. McPate, Aziza El Harchi, Yi hong Zhang, The hERG potassium channel and hERG screening for drug-induced torsades de pointes, Pharmacology & Therapeutics, Volume 119, Issue 2, August 2008, Pages 118-132).
Using Sophion Qpatch Assay Software, the amplitude of the peak outward hERG current upon repolarizing ramp was measured. Current amplitude was determined by taking the average of the last 5 current peaks under each treatment condition. Percent inhibition was determined by taking the ratio of the current measured at steady state in the presence of test article (ITest article) versus the control current (Icontrol), and expressed as: % inhibition=100−(ITest article/IControl)*100. When possible, a concentration-response curve was plotted and the data were fitted using Qpatch software to determine an IC50.
On the technique in general: Block of hERG is tested as a sign of cardiac risk.

The mark [1] stands for this setting: fit to a concentration-response curve, read-out: hERG IC50 (determined by curve fitting).
[2] abbreviates: extrapolated from single-point % inhibition, read-out: hERG IC50 (extrapolated from % activity shown).

T2 sequence (Q12809 whole entry): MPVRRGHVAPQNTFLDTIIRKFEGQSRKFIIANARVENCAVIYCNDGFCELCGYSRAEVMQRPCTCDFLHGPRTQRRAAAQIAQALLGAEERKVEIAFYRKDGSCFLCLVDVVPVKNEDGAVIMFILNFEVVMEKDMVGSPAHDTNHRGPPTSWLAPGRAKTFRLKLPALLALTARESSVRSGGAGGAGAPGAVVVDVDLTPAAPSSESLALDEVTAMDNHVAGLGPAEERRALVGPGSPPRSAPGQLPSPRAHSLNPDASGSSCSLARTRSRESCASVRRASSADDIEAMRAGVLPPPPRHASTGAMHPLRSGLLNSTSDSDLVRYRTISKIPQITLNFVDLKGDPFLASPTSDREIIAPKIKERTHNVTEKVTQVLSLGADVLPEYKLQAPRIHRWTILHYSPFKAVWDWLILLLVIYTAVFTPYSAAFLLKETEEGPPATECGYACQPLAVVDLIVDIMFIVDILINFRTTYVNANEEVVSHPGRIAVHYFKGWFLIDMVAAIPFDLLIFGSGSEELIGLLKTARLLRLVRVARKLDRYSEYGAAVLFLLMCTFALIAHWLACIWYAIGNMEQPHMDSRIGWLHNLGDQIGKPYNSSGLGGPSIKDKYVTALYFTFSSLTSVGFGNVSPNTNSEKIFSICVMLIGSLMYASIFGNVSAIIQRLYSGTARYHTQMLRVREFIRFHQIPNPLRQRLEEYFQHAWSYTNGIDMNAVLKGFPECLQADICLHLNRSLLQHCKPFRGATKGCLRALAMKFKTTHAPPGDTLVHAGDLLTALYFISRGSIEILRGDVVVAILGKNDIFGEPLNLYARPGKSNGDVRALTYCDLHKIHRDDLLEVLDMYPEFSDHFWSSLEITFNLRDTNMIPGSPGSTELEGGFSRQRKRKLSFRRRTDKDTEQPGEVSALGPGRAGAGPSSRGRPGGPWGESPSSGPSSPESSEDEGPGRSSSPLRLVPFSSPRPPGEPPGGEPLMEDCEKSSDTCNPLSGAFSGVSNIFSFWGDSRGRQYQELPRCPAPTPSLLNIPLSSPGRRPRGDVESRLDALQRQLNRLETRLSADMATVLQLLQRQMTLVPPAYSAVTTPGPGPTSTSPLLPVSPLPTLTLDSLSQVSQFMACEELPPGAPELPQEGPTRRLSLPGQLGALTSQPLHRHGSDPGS
T1 sequence (P05164 279-745 limits assumed): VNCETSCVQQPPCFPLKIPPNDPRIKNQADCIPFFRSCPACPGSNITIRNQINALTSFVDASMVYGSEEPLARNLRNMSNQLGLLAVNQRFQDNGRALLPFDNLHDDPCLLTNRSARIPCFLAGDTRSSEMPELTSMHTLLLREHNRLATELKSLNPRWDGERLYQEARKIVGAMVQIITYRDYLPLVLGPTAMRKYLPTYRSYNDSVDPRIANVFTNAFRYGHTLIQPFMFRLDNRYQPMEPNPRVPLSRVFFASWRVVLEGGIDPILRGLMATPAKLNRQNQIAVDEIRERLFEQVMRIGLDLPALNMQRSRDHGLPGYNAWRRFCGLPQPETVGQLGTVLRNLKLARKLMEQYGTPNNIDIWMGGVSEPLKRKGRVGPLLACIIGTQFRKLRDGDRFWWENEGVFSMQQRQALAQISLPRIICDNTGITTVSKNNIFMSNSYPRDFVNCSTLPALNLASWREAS
T1 sequence (P05164 165-273 limits assumed): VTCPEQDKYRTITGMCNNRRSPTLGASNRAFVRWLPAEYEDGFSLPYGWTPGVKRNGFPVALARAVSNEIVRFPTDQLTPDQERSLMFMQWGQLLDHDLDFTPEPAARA

In general, IC50 refers to the concentration that inhibits the measured activity by half. The term inhibition denotes the percentage by which the read-out fell short of the control. Low values mean a response near the control, high ones a response far below the control. As for `COc1ccc(Cl)cc1-c1cc(=O)[nH]c(=S)n1CCN` [C], the IC50 against MPO was 0.8 µM; at hERG potassium channel (setting [1]) it was 33 µM. Moreover, the “Therapeutic ratio hERG IC50/MPO IC50” value on hERG potassium channel is 41. On hERG potassium channel (human, pH 7.4, at 30 uM), this compound gave an inhibition at 5 min, 30 µM of 49%. On hERG potassium channel (human, pH 7.4), this compound gave an inhibition at 5 min, 100 µM of 75%.
Take `Cc1ccc(OCCO)c(-c2cc(=O)[nH]c(=S)n2CCN)c1` [Compound A, 1-(2-Aminoethyl)-6-(2-(2-hydroxyethoxy)-5-methylphenyl)-2-thioxo-2,3-dihydropyrimidin-4(1H)-one hydrochloride]: the IC50 was 0.55 µM against MPO and 3030 µM on hERG potassium channel (setting [2]). The “hERG IC50/MPO IC50 safety ratio over compound C” value on hERG potassium channel (5515/41) was 135 times. For the same compound, at hERG potassium channel (5515/162), the “hERG IC50/MPO IC50 safety ratio over compound D” value amounted to 34 times. Also, the “hERG IC50/MPO IC50 safety ratio over compound E” value on hERG potassium channel (5515/260) is on record as 21 times. The “hERG IC50/MPO IC50 safety ratio over compound F” value at hERG potassium channel (5515/900) worked out at 6.1 times. The “hERG IC50/MPO IC50 safety ratio over compound G” value at hERG potassium channel (5515/1500) is listed as 3.7 times. The “Therapeutic ratio hERG IC50/MPO IC50” value on hERG potassium channel is reported as 5515. For the same compound, the inhibition at 5 min, 300 µM against hERG potassium channel (human, pH 7.4) turned out to be 9%.
On to `COc1ccc(C)cc1-c1cc(=O)[nH]c(=S)n1CC(N)=O` [Compound B], for which inhibition against MPO was half-maximal at 2.5 µM (IC50).
With `NCCn1c(-c2cc(Cl)ccc2OCCO)cc(=O)[nH]c1=S` [Compound E], the half-inhibitory concentration (IC50) against MPO is 1.3 µM; at hERG potassium channel (setting [2]), 335 µM. For the same compound, the “Therapeutic ratio hERG IC50/MPO IC50” value at hERG potassium channel came to 260. Moreover, the inhibition at 5 min, 100 µM against hERG potassium channel (human, pH 7.4) turned out to be 23%.
Consider `COc1ccc(C)cc1-c1cc(=O)[nH]c(=S)n1CCN` [D], for which the concentration for half-maximal inhibition (IC50) turned out to be 0.99 µM at MPO and 160 µM at hERG potassium channel (setting [1]). Also, the “Therapeutic ratio hERG IC50/MPO IC50” value on hERG potassium channel came out at 162. At hERG potassium channel (human, pH 7.4), this compound gave an inhibition at 5 min, 100 µM of 40%. On hERG potassium channel (human, pH 7.4), this compound registered an inhibition at 5 min, 300 µM of 63%.
Consider `COc1ccc(Cl)cc1-c1cc(=O)[nH]c(=S)n1CC(N)=O` [F, 2-(6-(5-chloro-2-methoxyphenyl)-4-oxo-2-thioxo-3,4-dihydropyrimidin-1(2H)-yl)acetamide], for which, on hERG potassium channel (setting [2]), the half-maximal inhibitory concentration (IC50) is 1700 µM. Besides, the inhibition at 5 min, 300 µM at hERG potassium channel (human, pH 7.4) is 15%.
Take `COc1ccc(-c2cc(=O)[nH]c(=S)n2CC(=O)NCCN)c(OC)c1` [G, N-(2-aminoethyl)-2-[6-(2,4-dimethoxyphenyl)-4-oxo-2-thioxo-3,4-dihydropyrimidin-1(2H)-yl]acetamide]: the half-maximal inhibitory concentration (IC50) is 0.6 µM on MPO and 900 µM at hERG potassium channel (setting [2]). For the same compound, the “Therapeutic ratio hERG IC50/MPO IC50” value at hERG potassium channel is given as 1500. At hERG potassium channel (human, pH 7.4), the inhibition at 5 min, 300 µM stood at 25%.
